# Test results taken from article PMC12436592 (Nature Communications, 2025).
# Values joined by “and” are separate entries in the source; they are usually repeats but may differ in a detail not shown here. Equal values may be shown once.
# Assays:
# hP2X7R [1] = biological target: T1, hP2X7R (Homo sapiens, UniProt Q99572); assay: Ethidium bromide accumulation in hP2X7R-expressing HEK293 cells; type: cell-based; design: expressed in transfected cells; conditions: for mean % of maximum accumulation / MAX100 (% of maximum accumulation, replicates 1-3): BzATP 6 μM; for IC50: hP2X7R, ethidium bromide accumulation, mean ± SD, triplicate; for ΔΔGexp: relative to UB-ALT-P30, from experimental pIC50 values, T = 298 K; for MAX100 (% of maximum accumulation, replicates 1-3): single replicates
# T1 sequence (Q99572 1-595): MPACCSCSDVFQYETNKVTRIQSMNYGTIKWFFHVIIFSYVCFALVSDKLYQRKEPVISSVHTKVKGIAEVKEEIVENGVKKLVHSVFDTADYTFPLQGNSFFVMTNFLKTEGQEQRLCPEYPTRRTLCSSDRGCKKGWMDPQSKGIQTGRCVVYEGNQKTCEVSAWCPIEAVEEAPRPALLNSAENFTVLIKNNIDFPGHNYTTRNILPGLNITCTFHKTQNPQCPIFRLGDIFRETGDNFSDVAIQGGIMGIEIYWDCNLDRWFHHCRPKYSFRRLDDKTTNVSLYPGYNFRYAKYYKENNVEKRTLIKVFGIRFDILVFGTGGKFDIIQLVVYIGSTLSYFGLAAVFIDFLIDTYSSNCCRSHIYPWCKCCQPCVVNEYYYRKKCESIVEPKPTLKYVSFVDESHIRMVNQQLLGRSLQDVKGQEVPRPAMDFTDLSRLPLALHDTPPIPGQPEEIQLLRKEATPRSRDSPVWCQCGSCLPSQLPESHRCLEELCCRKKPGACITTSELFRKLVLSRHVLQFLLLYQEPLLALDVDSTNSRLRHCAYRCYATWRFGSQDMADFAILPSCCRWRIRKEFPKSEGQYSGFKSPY
# Protocol: Human P2X7R-expressing HEK293 cells were cultured in a humidified atmosphere of 5% CO2 at 37 °C in Dulbecco’s Modification of Eagle’s Medium (DMEM; Corning) supplemented with 10% (v/v) fetal bovine serum (Corning) and 1% (v/v) antibiotic–antimycotic (Gibco)[75]. To perform the assay, the DMEM was removed, and the HEK293 cells were washed with 3 mL of 1X DPBS (Dulbecco’s Phosphate-Buffered Saline; Corning). After the removal of DPBS solution, the cells were detached from the dish with 1 mL of trypsin/EDTA (Gibco), and the cells were collected by centrifugation. The cells (density of 2.25 × 10^7) were re-suspended in 4-(2-hydroxyethyl)-1-piperazineethanesulfonic acid (HEPES)-buffered salt solution consisting of 140 mM potassium chloride, 1 mM ethylene diamine tetraacetic acid (EDTA), 5 mM glucose, 20 mM HEPES, and 0.1 mM ethidium bromide (pH 7.4). The vehicles or appropriate range of concentrations of compounds (10 μL, pre-diluted in 10% (v/v) DMSO in DW from 10 mM stock) were added to each well of 96-well black plate (Corning), and 80 μL of the cell suspension was subsequently added to each well. BzATP (10 μL, pre-diluted in DW from 10 mM stock) was then added, and the final assay volume was maintained at 100 μL. After the incubation in 5% CO2 at 37 °C for 2 h, the ethidium dye uptake was detected by measuring the fluorescence (excitation wavelength of 530 nm and emission wavelength of 590 nm) of each well using a CHAMELEON™ Multi-Technology Plate Reader. The antagonistic activities of compounds are expressed as the percentages relative to the maximum accumulation of ethidium bromide observed in the control group with the stimulation of the hP2X7R by an agonist, BzATP. The IC50 values of compounds as antagonists were calculated using nonlinear regression analysis using OriginPro 9.1 software.
# hP2X7R [2] = biological target: T1, hP2X7R; assay: TEVC determination of antagonist binding kinetics in Xenopus oocytes; type: cell-based; design: expressed in transfected cells; host or cells: Xenopus laevis oocytes injected with capped cRNA (modified pUC19 vector, T7); conditions: single replicates
# Protocol: Xenopus laevis frogs were from Nasco International (Fort Atkinson, WI) and kept at the Core Facility Animal Models (CAM) of the Biomedical Center (BMC) of LMU Munich, Germany (Az:4.3.2–5682/LMU/BMC/CAM) in accordance with the EU Animal Welfare Act. Ovaries were surgically extracted (ROB_54-011-AZ 2532.Vet_02-23-166), treated with collagenase (Nordmark, Uetersen, Germany 1.0–1.5 mg/mL, ≥2 at RT) and defolliculated (15-min treatment in Ca^2+-free oocyte Ringer (90 mM NaCl, 1 mM KCl, 2 mM MgCl2, 5 mM HEPES), respectively. 50 nL of cRNA (0.5 µg/µL) were injected using a Nanoject II injector (Science Products, Drummond) and oocytes were kept in ND96 (96 mM NaCl, 2 mM KCl, 1 mM MgCl2, 1 mM CaCl2, 5 mM HEPES, pH 7.4–7.5). The plasmid containing the hP2X7R was linearized with NotI-HF (NEB) and purified with the MinElute Reaction Cleanup Kit (Qiagen, Hilden, Germany). Capped cRNA was synthesized using the mMESSAGE mMACHINE™ T7 Transcription Kit (ThermoFisher Scientific, Schwerte, Germany) and dissolved in nuclease-free water (500 ng/µL). Injected oocytes were allowed to express for at least 36 hours.
# Two-electrode voltage clamp recordings were performed at room temperature and a holding potential of −70 mV using a Turbo Tec-05X Amplifier (npi electronic, Tamm, Germany), a magnetic valve system, and CellWorks E 5.5.1 software. Currents were filtered at 1 kHz and digitized at 200 Hz. Electrode resistances were below 1.2 MΩ. […] Recordings were performed in ND96.
# After obtaining reproducible agonist-evoked responses, solutions were switched to antagonist-containing recording solutions with and without ATP to determine association rates. Responses following antagonist application were normalized to the preceding, stabilized agonist responses. Dissociation was determined in 1- or 2 min intervals when currents were reduced to <10%. Association curves were fit to the data by the equation % Response = (100-Plateau)*exp(-kobs*Time) + Plateau, where Plateau indicates the response at equilibrium and kobs the experimentally determined on-rate. All data were analyzed using Prism software (GraphPad Software, Inc., Version 8.3.0, San Diego, CA) and are presented as means ± SD from at least three oocytes. […] The final concentration of DMSO in the recording solution was ≤1%.
# Supplementary Fig. 10: Kinetics of ligands binding to the hP2X7R measured by TEVC. (A) […]
# All data represented as mean ± S.D. with n=3, 7, 7, and 7 f or the experiments performed at 3 nM, 10 nM, 30 nM, and 100 nM […]
# (B) Representative current traces for t he activation
# (C) On- and off-r at e constants and Ki
# Observed on- r at es kobs were determined by fitting the data (Fig. 4H, Supplementary Fig. 10A) to the function: % response = (100- Plateau)*exp(-kobs*time)+Plateau and plotted against the antagonist concentrations to obtain koff according to k obs=kon*F+koff. Assuming a (simplified) 1:1 binding model, of f-r at e constant koff and Ki values were estimated using the previous formulas as well as Ki=koff/kon. […]
# determined by Ca2+ imaging (18 nM, Fig. 3B ) and the binding equilibrium reached at each […]
# values of UB-MBX-46 c annot reflect an accurate value due to the nearly negligible dissociation on the timescale of the experiment. If k off was estimated based on the IC50 value (IC50 = koff/kon panel D), a more accurate koff value can be obtained. Numbers in square brackets are 95% Confidence Intervals. *values obtained from an extrapolated dose inhibition curve from D . (D) The plateau values, representing the binding equilibrium, were used to generate dose inhibition
# [3] = antagonist concentration 100 (unit not given)
# [4] = antagonist concentration 1000 (unit not given)
# [5] = antagonist concentration 10000 (unit not given)
# [6] = antagonist concentration 3.2 (unit not given)
# [7] = antagonist concentration 16 (unit not given)
# [8] = antagonist concentration 80 (unit not given)
# [9] = antagonist concentration 400 (unit not given)
# [10] = antagonist concentration 2000 (unit not given)
structure (smiles),measurement,setting,value
CC12CC3(C)CC(C)(C1)CC(C(=O)NNc1ccccc1Cl)(C2)C3 [UB-ALT-P37],mean % of maximum accumulation,hP2X7R [1]; [3],69.1292%
same,mean % of maximum accumulation,hP2X7R [1]; [4],66.8307%
same,mean % of maximum accumulation,hP2X7R [1]; [5],5.192%
same,IC50,hP2X7R [1],> 1000 nM
same,ΔΔGexp,hP2X7R [1],>1.88 kcal/mol
same,"MAX100 (% of maximum accumulation, replicates 1-3)",hP2X7R [1]; [3],71.3983 and 82.2055 and 53.7838
same,"MAX100 (% of maximum accumulation, replicates 1-3)",hP2X7R [1]; [4],82.6271 and 51.3784 and 66.4865
same,"MAX100 (% of maximum accumulation, replicates 1-3)",hP2X7R [1]; [5],17.7966 and 0.7519 and -2.973
O=C(NNc1ccccc1Cl)C12C3C4C5C3C1C5C42 (stereo not drawn) [UB-ALT-P38],mean % of maximum accumulation,hP2X7R [1]; [6],92.6488%
same,mean % of maximum accumulation,hP2X7R [1]; [7],90.4406%
same,mean % of maximum accumulation,hP2X7R [1]; [8],85.6943%
same,mean % of maximum accumulation,hP2X7R [1]; [9],54.1625%
same,mean % of maximum accumulation,hP2X7R [1]; [10],8.486%
same,mean % of maximum accumulation,hP2X7R [1]; [5],7.125%
same,IC50,hP2X7R [1],430 ± 64 nM
same,ΔΔGexp,hP2X7R [1],1.36 ± 1.50 kcal/mol
same,"MAX100 (% of maximum accumulation, replicates 1-3)",hP2X7R [1]; [6],94.8207 and 85.2995 and 97.8261
same,"MAX100 (% of maximum accumulation, replicates 1-3)",hP2X7R [1]; [7],88.8446 and 87.4773 and 95
same,"MAX100 (% of maximum accumulation, replicates 1-3)",hP2X7R [1]; [8],92.8287 and 88.3848 and 75.8696
same,"MAX100 (% of maximum accumulation, replicates 1-3)",hP2X7R [1]; [9],70.5179 and 47.1869 and 44.7826
same,"MAX100 (% of maximum accumulation, replicates 1-3)",hP2X7R [1]; [10],13.1474 and 15.7895 and -3.478
same,"MAX100 (% of maximum accumulation, replicates 1-3)",hP2X7R [1]; [5],12.9482 and 12.3412 and -3.913
O=C(NNc1ccccc1Cl)C12CC3CC(CC(C3)C1)C2 [UB-MALT-P30],"on-rate to hP2X7R, Response [%]","hP2X7R [2]; 3 nM, time 2 min",96.4% and 100% and 92.9%
same,"on-rate to hP2X7R, Response [%]","hP2X7R [2]; 3 nM, time 4 min",96.4% and 97.5% and 92.9%
same,"on-rate to hP2X7R, Response [%]","hP2X7R [2]; 3 nM, time 6 min",96.4% and 97.5% and 92.9%
same,"on-rate to hP2X7R, Response [%]","hP2X7R [2]; 10 nM, time 2 min",93.8% and 78.8% and 87.9% and 77.9% and 84.1% and 80.6% and 76.1%
same,"on-rate to hP2X7R, Response [%]","hP2X7R [2]; 10 nM, time 4 min",83.3% and 71.2% and 77.8% and 75.3% and 77.2% and 75% and 67.4%
same,"on-rate to hP2X7R, Response [%]","hP2X7R [2]; 10 nM, time 6 min",77.1% and 65.4% and 72.7% (2×) and 74% and 66.7% and 65.2%
same,"on-rate to hP2X7R, Response [%]","hP2X7R [2]; 10 nM, time 8 min",58.3% and 61.5% and 69.7% and 72.7% (2×) and 66.7% and 63%
same,"on-rate to hP2X7R, Response [%]","hP2X7R [2]; 10 nM, time 10 min",45.8% and 57.7% and 67.7% and 72.7% (2×) and 66.7% and 65.2%
same,"on-rate to hP2X7R, Response [%]","hP2X7R [2]; 10 nM, time 12 min",39.6% and 55.8% and 65.7% and 72.7% (2×) and 66.7% and 65.2%
same,"on-rate to hP2X7R, Response [%]","hP2X7R [2]; 30 nM, time 2 min",54.3% and 59.3% and 51.2% and 37.5% and 42.9% and 45.7% and 46.9%
same,"on-rate to hP2X7R, Response [%]","hP2X7R [2]; 30 nM, time 4 min",45.7% and 44.4% and 19.5% and 33.3% (2×) and 34.3%
same,"on-rate to hP2X7R, Response [%]","hP2X7R [2]; 30 nM, time 6 min",42.4% and 37% and 17.1% and 20.8% and 28.6% and 25.7% and 28.3%
same,"on-rate to hP2X7R, Response [%]","hP2X7R [2]; 30 nM, time 8 min",40.2% and 33.3% and 14.6% and 20.8% and 23.8% and 22.9% and 22.4%
same,"on-rate to hP2X7R, Response [%]","hP2X7R [2]; 30 nM, time 10 min",39.1% and 33.3% and 9.8% and 29.2% and 23.8% and 22.9% and 22.4%
same,"on-rate to hP2X7R, Response [%]","hP2X7R [2]; 100 nM, time 2 min",20% and 4.2% and 3.2% and 8.2% and 20.5% and 17.6% and 21.1%
same,"on-rate to hP2X7R, Response [%]","hP2X7R [2]; 100 nM, time 4 min",6.7%
same,"on-rate to hP2X7R, Response [%]","hP2X7R [2]; 100 nM, time 6 min",6.7% and 1.4% and 0% and 2% and 10.8% and 10.6% and 10.5%
